# Measured values taken from ChEMBL document CHEMBL4017471, “Discovery of novel aminobenzisoxazole derivatives as orally available factor IXa inhibitors” (Bioorg Med Chem Lett, 2017).
# Key:
# Plasma = assay: Anticoagulant activity in human plasma assessed as concentration required to double activated partial thromboplastin time; assay type: functional
# Coagulation factor X = Coagulation factor X (Homo sapiens, UniProt P00742)
# Description: Inhibition of human coagulation factor 10a
# [1] = Unbound plasma concentration in human at 10 uM measured after 4 hrs by equilibrium dialysis method; assay type: ADME, cell-free
# [2] = Apparent permeability of the compound at 5 uM after 5 hrs by PAMPA; assay type: physicochemical
# Coagulation factor IX = Coagulation factor IX (Homo sapiens, UniProt P00740)
# Sequence of Coagulation factor IX (P00740 47-191 limits assumed): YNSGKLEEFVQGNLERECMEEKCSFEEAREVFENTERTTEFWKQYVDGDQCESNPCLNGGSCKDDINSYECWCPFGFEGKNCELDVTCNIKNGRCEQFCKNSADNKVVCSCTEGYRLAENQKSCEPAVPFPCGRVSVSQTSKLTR
# Sequence of Coagulation factor IX (P00740 227-461 limits assumed): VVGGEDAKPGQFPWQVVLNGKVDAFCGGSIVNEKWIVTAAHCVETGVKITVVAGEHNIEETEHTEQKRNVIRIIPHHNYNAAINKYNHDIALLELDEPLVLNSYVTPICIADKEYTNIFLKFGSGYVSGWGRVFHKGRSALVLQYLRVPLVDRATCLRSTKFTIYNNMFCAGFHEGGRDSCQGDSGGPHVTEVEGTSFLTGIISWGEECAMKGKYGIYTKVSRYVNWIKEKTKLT
# [3] = Cmax in rat at 1 mg/kg, po administered as cassette dose; assay type: ADME, organism-based; set-up: dose 1 mg/kg, route oral; details: in vivo
# Sequence of Coagulation factor X (P00742 41-179 limits assumed): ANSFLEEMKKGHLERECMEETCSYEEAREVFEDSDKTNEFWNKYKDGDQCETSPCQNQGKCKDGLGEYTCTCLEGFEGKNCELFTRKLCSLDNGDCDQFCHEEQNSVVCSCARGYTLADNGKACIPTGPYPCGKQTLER
# Sequence of Coagulation factor X (P00742 235-488 limits assumed): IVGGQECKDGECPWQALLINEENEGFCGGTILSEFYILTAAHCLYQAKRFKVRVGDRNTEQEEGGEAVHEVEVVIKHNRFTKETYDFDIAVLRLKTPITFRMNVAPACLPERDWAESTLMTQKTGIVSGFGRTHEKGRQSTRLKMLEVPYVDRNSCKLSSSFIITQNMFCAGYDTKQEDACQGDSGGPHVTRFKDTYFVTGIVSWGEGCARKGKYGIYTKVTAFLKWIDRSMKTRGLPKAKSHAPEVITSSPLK
Compound,2aPTT (Plasma),IC50 (Coagulation factor X),"fraction unbound at 4 h, 10 µM [1]","Papp at 5 h, 5 µM [2]",IC50 (Coagulation factor IX),Cmax [3]
Cn1cc(-c2ccc(C(=O)N[C@@H]3CCN(c4ncc(Cl)c5c(N)noc45)C3)c(Cl)c2)cnc1=O,47 µM,26000 nM,0.017,0.7 ×10⁻⁶ cm/s,36 nM,–
Nc1noc2c(N3CCC(NC(=O)c4ccc(-n5cnnc5)cc4Cl)C3)nccc12 (racemic),–,> 100000 nM,–,–,89 nM,–
Nc1noc2c(N3CC[C@@H](NC(=O)c4ccc(-c5cncnc5)cc4Cl)C3)ncc(Cl)c12,101 µM,> 100000 nM,0.002,9.4 ×10⁻⁶ cm/s,26 nM,380 ng/mL
Cc1cc2c(N)noc2c(N2CC[C@@H](NC(=O)c3ccc(-n4cnnc4)cc3Cl)C2)n1,–,> 100000 nM,–,–,41 nM,–
Nc1noc2c(N3CC[C@@H](NC(=O)c4ccc(-n5cnnc5C(F)F)cc4Cl)C3)ncc(Cl)c12,32 µM,> 100000 nM,0.012,2.7 ×10⁻⁶ cm/s,45 nM,100 ng/mL
Nc1noc2c(N3CC[C@@H](NC(=O)c4ccc(-n5cnnc5)cc4Cl)C3)ccc(F)c12,–,> 100000 nM,–,–,172 nM,–
Nc1noc2c(N3CC[C@@H](NC(=O)c4ccc(-n5cnnc5)cc4Cl)C3)cc(Cl)c(Cl)c12,–,29000 nM,–,–,47 nM,–
Nc1noc2c(N3CC[C@@H](NC(=O)c4ccc(-n5cnc6ncccc65)cc4Cl)C3)ncc(Cl)c12,28 µM,25000 nM,0.008,3.1 ×10⁻⁶ cm/s,13 nM,–
Cc1ncn(-c2ccc(C(=O)N[C@@H]3CCN(c4ncc(Cl)c5c(N)noc45)C3)c(Cl)c2)n1,113 µM,> 100000 nM,0.002,11.6 ×10⁻⁶ cm/s,33 nM,330 ng/mL
Cc1ccc(N2CCC(C)(NC(=O)c3ccc(-n4cnnc4)cc3Cl)C2)c([N+](=O)[O-])c1 (stereo not given),–,> 100000 nM,–,–,2200 nM,–
Cc1cc(N2CC[C@@H](NC(=O)c3ccc(-n4cnnc4)cc3Cl)C2)c2onc(N)c2c1Cl,–,22000 nM,–,–,62 nM,–
Nc1noc2c(N3CC[C@@H](NC(=O)c4ccc(-n5cnnc5)cc4Cl)C3)ncc(Cl)c12,–,78000 nM,0.012,0.7 ×10⁻⁶ cm/s,31 nM,120 ng/mL
